Source: US20060135403A1, “Therapeutic formulations for the treatment of beta-amyloid related diseases” (priority 2002, published 2006)
Structures can show the parent of a compound that is named as a salt. Where two headings read alike, the source gives them in different places.

Key:
Aβ1-40 = biological target: T1, Aβ1-40 (Homo sapiens, UniProt P05067); experiment: Mass spectroscopy (MS) binding assay; design: key: “+++” indicates strong binding; “++” indicates moderate binding; “+” indicates weak binding; “−” indicates no detectable binding; conditions: 200 μM test compound, 20 μM solubilized Aβ40, 20% ethanol, pH 7.4
T1 construct: 20 μM of solubilized Aβ40
T1 sequence (P05067 672-711 limits assumed): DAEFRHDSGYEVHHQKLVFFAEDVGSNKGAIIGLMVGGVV
Method: Test compounds were purchased from commercial sources or synthesized and screened by mass spectroscopy (“MS”) assays. The MS assay gives data on the ability of compounds to bind to an amyloid.
In the mass spectroscopy (“MS”) assay, samples were prepared as aqueous solutions containing 20% ethanol, 200 μM of a test compound and 20 μM of solubilized Aβ40. The pH value of each sample was adjusted to 7.4 (±0.2) by addition of 0.1% aqueous sodium hydroxide. The solutions were then analyzed by electrospray ionization mass spectroscopy using a Waters ZQ 4000 mass spectrometer. Samples were introduced by direct infusion at a flow-rate of […] within 2 hours after sample preparation. The source temperature was kept at 70° C. and the cone voltage was 20 V for all the analysis. Data were processed using Masslynx 3.5 software. The MS assay gives data on the ability of compounds to bind to Aβ, whereas the ThT, EM and CD assays give data on inhibition of fibrillogenesis. “+++” indicates strong binding; “++” indicates moderate binding; “+” indicates weak binding; “−” indicates no detectable binding; and entries left blank were not determined.

Aβ [1] = conditions: PDAPP, cited from earlier work
Aβ [2] = conditions: cited from earlier work
Target sequence in this assay (P05067 672-711 limits assumed): as above

Aβ [3] = conditions: cited from earlier work; remark: listed apart in the source
Aβ [4] = conditions: TgCRND8, IP; cited from earlier work
Aβ [5] = biological target: T2, Aβ (Homo sapiens, UniProt P05067); conditions: TgAPPswe, IP; cited from earlier work
T2 construct: the amyloid-β peptide (Aβ), a 39-43 amino acid protein that is produced through cleavage of the β-amyloid precursor protein (APP); host or cells: brains of transgenic mice (PDAPP, Tg2576, Tg2576+PS1, TgCRND8, TgAPPswe)

Compound | MS Binding Aβ1-40 (Aβ1-40) | also measured
CCCC(CO)NCCCS(=O)(=O)O (racemic) [CA, 3-[(dl)-1-hydroxy-2-pentyl]amino-1-propanesulfonic acid] | +++ | 
O=C(NCC(O)CS(=O)(=O)[O-])OCc1ccccc1.[Na+] (centres unmarked) [AC, N-benzyloxycarbonyl-3-amino-2-hydroxy-1-propanesulfonic acid sodium salt monohydrate] | + | 
O=C(NCCCCS(=O)(=O)[O-])OCc1ccccc1.[Na+] [AD, N-benzyloxycarbonyl-4-amino-1-butanesulfonic acid sodium salt monohydrate] | + | 
O=C(NCCCS(=O)(=O)[O-])OCc1ccccc1.[Na+] [AE, N-benzyloxycarbonyl-3-amino-1-propanesulfonic acid sodium salt monohydrate] | + | 
O=C(NCCCS(=O)(=O)O)NC(c1ccccc1)c1ccccc1 [AF, 3-{[(benzhydrylamino)carbonyl]amino}-1-propanesulfanic acid] | + | 
O=C(Cc1ccccc1)NCCCS(=O)(=O)[O-].[Na+] [AG, 3-[(phenylacetyl)amino]-1-propanesulfonic acid, sodium salt] | + | 
O=C(NCCCS(=O)(=O)[O-])NCc1ccccc1.[Na+] [AH, 3-{[(benzylamino)carbonyl]amino}-1-propanesulfonic acid, sodium salt] | + | 
CC(C)Cc1ccc(C(C)C(=O)NCCCS(=O)(=O)[O-])cc1.[Na+] (centres unmarked) [AL, 3-{[2-(4-isobutylphenyl)propanoyl]amino}-1-propanesulfonic acid, sodium salt] | ++ | 
O=S(=O)([O-])CCCNC(=S)NCc1ccccc1.[Na+] [AM, 3-{[(benzylamino)carbonothioyl]amino}-1-propanesulfonic acid sodium salt] | + | 
C[n+]1cccc(C(=O)NCCCS(=O)(=O)[O-])c1 [AN, 3-((N-methylnicotlnoyl)amino)-1-propanesulfonic acid, inner salt] | − | 
O=S(=O)(O)CCCNCc1ccc2c(c1)OCO2 [AW, 3-[((1,3-benzodioxol-5-yl)methyl)amino]-1-propanesulfonic acid] | ++ | 
COc1ccc(CNCCCS(=O)(=O)O)cc1OC [AX, 3-(3,4-dimethoxybenzylamino)-1-propanesulfonic acid] | +++ | 
COc1cc(CNCCCS(=O)(=O)O)cc(OC)c1OC [AY, 3-(3,4,5-trimethoxybenzylamino)-1-propanesulfonic acid] | ++ | 
COc1cccc(CNCCCS(=O)(=O)O)c1OC [AZ, 3-(2,3-dimethoxybenzylamino)-1-propanesulfonic acid] | ++ | 
COc1cc(CNCCCS(=O)(=O)O)cc(OC)c1 [BA, 3-(3,5-dimethoxybenzylamino)-1-propanesulfonic acid] | +++ | 
COc1ccc(CNCCCS(=O)(=O)O)c(OC)c1 [BB, 3-(2,4-dimethoxybenzylamino)-1-propanesulfonic acid] | +++ | 
O=S(=O)(O)CCCNCc1ccc(O)c(O)c1 [BC, 3-(3,4-dihydroxybenzylamino)-1-propanesulfonic acid] | + | 

Compound | MS Binding Aβ1-40 (Aβ1-40) | also measured
NCCNS(=O)(=O)[O-].[Na+] [BI] | + | 
O=S(=O)(O)CCCNCCc1c[nH]c2ccccc12 [BT, 3-{[2-(3-indolyl)ethyl]-amino}-1-propanesulfonic acid] | +++ | 
O=S(=O)(O)CCCNC1CCCc2ccccc21 (centres unmarked) [BU, 3-(1,2,3,4-tetrahydro-1-naphthylamino)-1-propanesulfonic acid] | +++ | 
CCNCCCS(=O)(=O)O [BV, 3-(ethylamino)-1-propanesulfonic acid] | +++ | 
O=S(=O)(O)CCCNC12CC3CC(CC(C3)C1)C2 [BW, 3-(1-adamantyl)amino-1-propanesulfonic acid] | +++ | 
CC(C)(C)NCCCS(=O)(=O)O [BX, 3-(t-butyl)amino-1-propanesulfonic acid] | +++ | 
O=S(=O)(O)CCCNC1CC2CCC1C2 (centres unmarked) [BY, 3-(2-norbornyl)amino-1-propanesulfonic acid] | +++ | 
O=S(=O)(O)CCCNC1C2CC3CC(C2)CC1C3 (centres unmarked) [BZ, 3-(2-adamantyl)amino-1-propanesulfonic acid] | +++ | 
NCCCCS(=O)(=O)O [CB, 4-amino-1-butanesulfonic acid] | ++ | 
N=C(N)SCCCS(=O)(=O)O [CP, 3-(amidinothio)-1-propanesulfonic acid] | + | 
O=S(=O)(O)CCCN1CC=C(CCCc2ccccc2)CC1 [D, 4-(3-phenylpropyl)-1-sulfopropyl-2,3,6-tetrahydropyridine] | + | 
O=S(=O)([O-])CCCC[n+]1ccc(C2CC=CCC2)cc1 (centres unmarked) [T, 4-(4-cyclohex-3-enylpyridyl) butanesulfonic acid, inner salt] | + | 
Aβ40: Aβ40 peptide given orally or nasally as immunogen (Weiner 2000) |  | Change in Cerebral Levels: Amyloid Burden (Aβ [1]; nasal): −60%; Change in Cerebral Levels: Aβ, total Aβ levels (Aβ [1]; nasal): Total: −50%; Change in Cerebral Levels: Amyloid Burden (Aβ [1]; oral): 0%; Change in Cerebral Levels: Aβ, total Aβ levels (Aβ [1]; oral): Total: 0%
Cholyl-LVFFA-OH |  | anti-fibrillogenic activity (Aβ [2]): can act as an anti-fibrillogenic agent
K6Aβ1-30: Aβ peptide immunogen of Sigurdsson 2001 |  | Change in Cerebral Levels: Amyloid Burden (Aβ [3]; Tg2576, SC): −85%; Change in Cerebral Levels: Aβ, total Aβ levels (Aβ [3]; Tg2576, SC): Total: −55%
fAβ42: fibrillar Aβ42 used for active immunization |  | Change in Cerebral Levels: Amyloid Burden (Aβ [1]; IP): −95%; Change in Cerebral Levels: Aβ, total Aβ levels (Aβ [1]; IP): Total: −80%; Change in Cerebral Levels: Aβ (Aβ [3]; Tg2576, IP, Aβ species not specified): −70%; Change in Cerebral Levels: Amyloid Burden (Aβ [3]; Tg2576, IP): −85%; Change in Cerebral Levels: Amyloid Burden (Aβ [3]; Tg2576, SC): −80%; Change in Cerebral Levels: Amyloid Burden (Aβ [4]): −50%; Change in Cerebral Levels: Aβ, levels of Aβ40 (Aβ [5]): 40: +100%;; Change in Cerebral Levels: Aβ, levels of Aβ42 (Aβ [5]): 42: 0%
